Data taken from PubChem BioAssay (NCI).
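Where inhibition never reached the appropriate level, the endpoint shown equals the highest concentration tested. Otherwise, values were interpolated linearly from a five-concentration, 48-hour dose response in 96-well plates. The concentration for 50% growth inhibition is given as GI50. TGI: concentration producing complete growth inhibition.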

Key:
Assay in all cases: growth of human tumour cells (NCI), 48 h
[1] = tested on: 786-0 renal
[2] = tested on: A498 renal
[3] = tested on: A549 NSCLC
[4] = tested on: ACHN renal
[5] = tested on: BT-549 breast
[6] = tested on: CAKI-1 renal
[7] = tested on: CCRF-CEM leukemia
[8] = tested on: COLO 205 colon
[9] = tested on: DU-145 prostate
[10] = tested on: EKVX NSCLC
[11] = tested on: HCC-2998 colon
[12] = tested on: HCT-116 colon
[13] = tested on: HCT-15 colon
[14] = tested on: HL-60(TB) leukemia
[15] = tested on: HOP-62 NSCLC
[16] = tested on: HOP-92 NSCLC
[17] = tested on: HS 578T breast
[18] = tested on: HT29 colon
[19] = tested on: IGROV1 ovarian
[20] = tested on: K-562 leukemia
[21] = tested on: KM12 colon
[22] = tested on: LOX IMVI melanoma
[23] = tested on: M14 melanoma
[24] = tested on: MALME-3M melanoma
[25] = tested on: MCF7 breast
[26] = tested on: MDA-MB-231 breast
[27] = tested on: MDA-MB-435
[28] = tested on: MDA-MB-468 breast
[29] = tested on: MOLT-4 leukemia
[30] = tested on: NCI-H226 lung
[31] = tested on: NCI-H23 lung
[32] = tested on: NCI-H460 lung
[33] = tested on: NCI-H522 lung
[34] = tested on: NCI/ADR-RES ovarian
[35] = tested on: OVCAR-3 ovarian
[36] = tested on: OVCAR-4 ovarian
[37] = tested on: OVCAR-5 ovarian
[38] = tested on: OVCAR-8 ovarian
[39] = tested on: PC-3 prostate
[40] = tested on: RPMI-8226 leukemia
[41] = tested on: RXF 393 renal
[42] = tested on: SF-268 CNS
[43] = tested on: SF-295 CNS
[44] = tested on: SF-539 CNS
[45] = tested on: SK-MEL-2 melanoma
[46] = tested on: SK-MEL-28 melanoma
[47] = tested on: SK-MEL-5 melanoma
[48] = tested on: SK-OV-3 ovarian
[49] = tested on: SN12C renal
[50] = tested on: SNB-19 CNS
[51] = tested on: SNB-75 CNS
[52] = tested on: SR leukemia
[53] = tested on: SW-620 colon
[54] = tested on: T-47D breast
[55] = tested on: TK-10 renal
[56] = tested on: U251 CNS
[57] = tested on: UACC-257 melanoma
[58] = tested on: UACC-62 melanoma
[59] = tested on: UO-31 renal

Compound: O=C(NO)c1ccc(CNC(=O)[C@H]2Cc3c([nH]c4ccccc34)[C@H](c3ccccc3)N2)cc1
- GI50 [1]: 9.15 µM
- TGI [1]: > 23.7 µM
- GI50 [2]: 2.46 µM
- TGI [2]: 11.7 µM
- GI50 [3]: 6.77 µM
- TGI [3]: > 23.7 µM
- GI50 [4]: 5 µM
- TGI [4]: 16.2 µM
- GI50 [5]: 14.2 µM
- TGI [5]: > 23.7 µM
- GI50 [6]: 5.69 µM
- TGI [6]: 16.6 µM
- GI50 [7]: 0.785 µM
- TGI [7]: > 23.7 µM
- GI50 [8]: 2.36 µM
- TGI [8]: 5.57 µM
- GI50 [9]: 4.06 µM
- TGI [9]: > 23.7 µM
- GI50 [10]: 8.42 µM
- TGI [10]: > 23.7 µM
- GI50 [11]: 2.9 µM
- TGI [11]: 6.91 µM
- GI50 [12]: 1.13 µM
- TGI [12]: > 23.7 µM
- GI50 [13]: 11.8 µM
- TGI [13]: > 23.7 µM
- GI50 [14]: 3 µM
- TGI [14]: > 23.7 µM
- GI50 [15]: 3.6 µM
- TGI [15]: 13.1 µM
- GI50 [16]: 1.59 µM
- TGI [16]: 12.4 µM
- GI50 [17]: 1.38 µM
- TGI [17]: 21.8 µM
- GI50 [18]: 3.29 µM
- TGI [18]: 18 µM
- GI50 [19]: 3.71 µM
- TGI [19]: 15.2 µM
- GI50 [20]: 1.38 µM
- TGI [20]: > 23.7 µM
- GI50 [21]: 5.01 µM
- TGI [21]: > 23.7 µM
- GI50 [22]: 3.35 µM
- TGI [22]: 6.43 µM
- GI50 [23]: 5.93 µM
- TGI [23]: > 23.7 µM
- GI50 [24]: 0.545 µM
- TGI [24]: > 23.7 µM
- GI50 [25]: 3.59 µM
- TGI [25]: > 23.7 µM
- GI50 [26]: 3.53 µM
- TGI [26]: 12.4 µM
- GI50 [27]: 3.26 µM
- TGI [27]: 13.5 µM
- GI50 [28]: 0.507 µM
- TGI [28]: 2.33 µM
- GI50 [29]: 0.763 µM
- TGI [29]: > 23.7 µM
- GI50 [30]: 2.7 µM
- TGI [30]: > 23.7 µM
- GI50 [31]: 4.71 µM
- TGI [31]: 18.3 µM
- GI50 [32]: 3.59 µM
- TGI [32]: > 23.7 µM
- GI50 [33]: 0.685 µM
- TGI [33]: 5.64 µM
- GI50 [34]: 5.72 µM
- TGI [34]: > 23.7 µM
- GI50 [35]: 2.51 µM
- TGI [35]: 12.6 µM
- GI50 [36]: 8.3 µM
- TGI [36]: > 23.7 µM
- GI50 [37]: 1.42 µM
- TGI [37]: 6.84 µM
- GI50 [38]: 1.43 µM
- TGI [38]: > 23.7 µM
- GI50 [39]: 5.39 µM
- TGI [39]: > 23.7 µM
- GI50 [40]: 1.35 µM
- TGI [40]: > 23.7 µM
- GI50 [41]: 1.92 µM
- TGI [41]: 6.54 µM
- GI50 [42]: 5.5 µM
- TGI [42]: > 23.7 µM
- GI50 [43]: 3.34 µM
- TGI [43]: 7.89 µM
- GI50 [44]: 3.73 µM
- TGI [44]: > 23.7 µM
- GI50 [45]: 3.66 µM
- TGI [45]: 14.6 µM
- GI50 [46]: 3.13 µM
- TGI [46]: 22 µM
- GI50 [47]: 2.66 µM
- TGI [47]: 5.93 µM
- GI50 [48]: 3.28 µM
- TGI [48]: 11.3 µM
- GI50 [49]: 5.27 µM
- TGI [49]: 23.5 µM
- GI50 [50]: 5.19 µM
- TGI [50]: > 23.7 µM
- GI50 [51]: 1.99 µM
- TGI [51]: > 23.7 µM
- GI50 [52]: 0.449 µM
- TGI [52]: > 23.7 µM
- GI50 [53]: 2.31 µM
- TGI [53]: 7.76 µM
- GI50 [54]: 1.03 µM
- TGI [54]: 9.84 µM
- GI50 [55]: 2.88 µM
- TGI [55]: 19.2 µM
- GI50 [56]: 2.78 µM
- TGI [56]: 12.9 µM
- GI50 [57]: 1.43 µM
- TGI [57]: 15.9 µM
- GI50 [58]: 1.13 µM
- TGI [58]: 4.64 µM
- GI50 [59]: 5.58 µM
- TGI [59]: > 23.7 µM

Compound: COc1ccc2[nH]c(O)c(N=Nc3nc(-c4ccccc4)cs3)c2c1
- GI50 [1]: 1.96 µM
- TGI [1]: 3.69 µM
- GI50 [2]: 2.67 µM
- TGI [2]: 5.96 µM
- GI50 [3]: 2.76 µM
- TGI [3]: 11.3 µM
- GI50 [4]: 2.89 µM
- TGI [4]: 10.2 µM
- GI50 [5]: 4.43 µM
- TGI [5]: 21.8 µM
- GI50 [6]: 3.85 µM
- TGI [6]: 16.7 µM
- GI50 [7]: 6.48 µM
- TGI [7]: > 100 µM
- GI50 [8]: 4.87 µM
- TGI [8]: 29.5 µM
- GI50 [9]: 4.31 µM
- TGI [9]: 17.5 µM
- GI50 [10]: 2.62 µM
- TGI [10]: 20.2 µM
- GI50 [11]: 6.93 µM
- TGI [11]: > 100 µM
- GI50 [12]: 2.26 µM
- TGI [12]: 5.34 µM
- GI50 [13]: 3.26 µM
- TGI [13]: 17.3 µM
- GI50 [14]: 41.1 µM
- TGI [14]: > 100 µM
- GI50 [15]: 5.26 µM
- TGI [15]: 30.3 µM
- GI50 [16]: 1.06 µM
- TGI [16]: 4.14 µM
- GI50 [17]: 4.27 µM
- TGI [17]: 42.9 µM
- GI50 [18]: 7.21 µM
- TGI [18]: 41.1 µM
- GI50 [19]: 5.04 µM
- TGI [19]: 31.9 µM
- GI50 [20]: 4.62 µM
- TGI [20]: > 100 µM
- GI50 [21]: 5.55 µM
- TGI [21]: > 100 µM
- GI50 [22]: 3.08 µM
- TGI [22]: 10.5 µM
- GI50 [23]: 5.8 µM
- TGI [23]: 46.7 µM
- GI50 [24]: 2.51 µM
- TGI [24]: 13.1 µM
- GI50 [25]: 3.66 µM
- TGI [25]: 42.5 µM
- GI50 [26]: 2.66 µM
- TGI [26]: 12.7 µM
- GI50 [27]: 4.96 µM
- TGI [27]: > 100 µM
- GI50 [28]: 1.71 µM
- TGI [28]: 5.35 µM
- GI50 [29]: 7.27 µM
- TGI [29]: > 100 µM
- GI50 [30]: 2.65 µM
- TGI [30]: 13.4 µM
- GI50 [31]: 3.56 µM
- TGI [31]: 19.5 µM
- GI50 [32]: 3.43 µM
- TGI [32]: 14.8 µM
- GI50 [33]: 2.29 µM
- TGI [33]: 9.63 µM
- GI50 [34]: 2.24 µM
- TGI [34]: 5.15 µM
- GI50 [35]: 3.06 µM
- TGI [35]: 12.5 µM
- GI50 [36]: 1.98 µM
- TGI [36]: 5.07 µM
- GI50 [37]: 5.44 µM
- TGI [37]: 36.7 µM
- GI50 [38]: 3.11 µM
- TGI [38]: 10.5 µM
- GI50 [39]: 4.57 µM
- TGI [39]: > 100 µM
- GI50 [40]: 14.4 µM
- TGI [40]: > 100 µM
- GI50 [41]: 3.05 µM
- TGI [41]: 8.74 µM
- GI50 [42]: 3.1 µM
- TGI [42]: 11.8 µM
- GI50 [43]: 3.35 µM
- TGI [43]: 12.6 µM
- GI50 [44]: 2.65 µM
- TGI [44]: 8.49 µM
- GI50 [45]: 13.3 µM
- TGI [45]: 59.4 µM
- GI50 [46]: 4.83 µM
- TGI [46]: > 100 µM
- GI50 [47]: 11.5 µM
- TGI [47]: 48.3 µM
- GI50 [48]: 3.52 µM
- TGI [48]: 22.2 µM
- GI50 [49]: 2.5 µM
- TGI [49]: 17.7 µM
- GI50 [50]: 3.09 µM
- TGI [50]: 10.4 µM
- GI50 [51]: 2.64 µM
- TGI [51]: 16.2 µM
- GI50 [52]: 4.55 µM
- TGI [52]: > 100 µM
- GI50 [53]: 3.7 µM
- TGI [53]: 16.6 µM
- GI50 [54]: 2.78 µM
- TGI [54]: 15.8 µM
- GI50 [55]: 6.47 µM
- TGI [55]: 16.5 µM
- GI50 [56]: 2.62 µM
- TGI [56]: 6.97 µM
- GI50 [57]: 17.4 µM
- TGI [57]: > 100 µM
- GI50 [58]: 2.54 µM
- TGI [58]: 38.7 µM
- GI50 [59]: 1.38 µM
- TGI [59]: 6.4 µM
